The results in this text go back to patent US20240324595A1, “HERBICIDAL COMPOSITIONS” (SYNGENTA CROP PROTECTION AG, priority 2021, published 2024).

What all share (format): in vivo
Test [1] concerns Digitaria insularis (TRCIN). Put plainly: Post-emergence efficacy, Digitaria insularis. The source says:
(§1) When active ingredients are combined, the activity to be expected (E) for any given active ingredient combination obeys the so-called Colby Formula and can be calculated as follows (Colby, S. R., Calculating synergistic and antagonistic responses of herbicide combination, Weeds, Vol. 15, pages 20-22; 1967): • ppm=milligrams of active ingredient (a.i.) per litre • X=% action by first active ingredient using p ppm of the active ingredient • Y=% action by second active ingredient using q ppm of the active ingredient.
(§2) According to Colby, the expected action of active ingredients A+B using p+q ppm of active ingredient is represented by the following formula: […]
(§3) If the action actually observed (O) is greater than the expected action E then the action of the combination is super-additive, i.e. there is a synergistic effect. In mathematical terms, synergism corresponds to a positive value for the difference of (O−E). In the case of purely complementary addition of activities (expected activity), said difference (O−E) is zero. A negative value of said difference (O−E) signals a loss of activity compared to the expected activity.
(§4) The efficacy of various compositions of the present invention were tested against plants including the following species: Amaranthus retroflexus (AMARE) Cenchrus echinatus (CCHEC), Echinochloa crus-gali (ECHCG), Eleusine indica (ELEIN), Setaria faberi (SETFA) Sorghum halapense (SORHA) and Digitaria insularis (TRCIN). The compositions are applied post-emergence, and the tests evaluated at certain days-after-application (DAA) as indicated. The tests were evaluated (100=total damage to plant; 0=no damage to plant), and the results are shown below in tables B1 to B13.

In the next test the test system is Eleusine indica (ELEIN). The experiment in a line: Post-emergence efficacy, Eleusine indica. Particulars: 15 DAA.
Source text: as §1, §2, §3, §4

Test [2] concerns Sorghum halapense (SORHA). Put plainly: Post-emergence efficacy, Sorghum halapense. Particulars: 15 DAA.
Source text: as §1, §2, §3, §4

In test [3] the test system is Amaranthus retroflexus (AMARE). Put plainly: Post-emergence efficacy, Amaranthus retroflexus. Particulars: 13 DAA.
Source text: as §1, §2
If the action actually observed (O) is greater than the expected action E then the action of the combination is super-additive, i.e. there is a synergistic effect. […]
as §4

The next test has as its system Setaria faberi (SETFA). Put plainly: Post-emergence efficacy, Setaria faberi. The following applies: 15 DAA.
Source text: as §1, §2, §3, §4

Test [4] relates to Cenchrus echinatus (CCHEC). Put plainly: Post-emergence efficacy, Cenchrus echinatus. The following applies: 14 DAA.
Source text: as §1, §2, §3, §4

Test [5] deals with Echinochloa crus-gali (ECHCG). Put plainly: Post-emergence efficacy, Echinochloa crus-gali.
Source text: as §1, §2, §3, §4

Molecules are shown by their SMILES.

Regarding `CCOC(=O)COc1ncccc1Oc1cc(-n2c(=O)cc(C(F)(F)F)n(C)c2=O)c(F)cc1Cl` [Compound B3c, epyrifenacil, reference compound], the “Observed (100=total damage to plant; 0=no damage)” value in test [1] (POST, 16 DAA, rate 1 g/ha) amounted to 33; in the test on Eleusine indica (ELEIN) (rate 25 g/ha (B3c)), 16.

For the compound `Cc1nn(-c2cc(NS(C)(=O)=O)c(Cl)cc2Cl)c(=O)n1C(F)F` [Compound B3i, sulfentrazone, reference compound], the “Observed (100=total damage to plant; 0=no damage)” value in test [2] (rate 60 g/ha) amounted to 13.

On to `CC#Cc1ccc(C2=C(OC(=O)OC)C3CCC(C3)C2=O)c(OC)c1` (stereo not drawn) [Ic], for which the “Observed (100=total damage to plant; 0=no damage)” value in test [2] (rate 3.125 g/ha) is reported as 28; in test [2] (rate 6.25 g/ha), 45; in test [2] (rate 12.5 g/ha), 75; in test [1] (POST, 14 DAA, rate 100 g/ha) it was 5; in test [1] (POST, 16 DAA, rate 3.125 g/ha), 15; in test [1] (Table B8, POST, 14 DAA, rate 0.47 g/ha), 0. The “Observed (100=total damage to plant; 0=no damage)” value in test [1] (Table B8, POST, 14 DAA, rate 0.94 g/ha) is recorded as 0; in test [1] (Table B8, POST, 14 DAA, rate 1.88 g/ha), 11; in test [3] (rate 7.5 g/ha), 4; in the test with Setaria faberi (SETFA) (rate 3 g/ha) it was 10; with Setaria faberi (SETFA) (rate 6 g/ha), 29; in the test on Eleusine indica (ELEIN) (rate 12.5 g/ha), 72. The “Observed (100=total damage to plant; 0=no damage)” value in the test on Eleusine indica (ELEIN) (rate 25 g/ha (Ic)) came to 79; in test [4] (rate 3 g/ha), 50; in test [4] (rate 6 g/ha), 72; in test [4] (rate 12.5 g/ha) it was 79; in test [4] (rate 25 g/ha), 79; in test [5] (Table B7, POST, 20 DAA, rate 3.125 g/ha), 14. Besides, the “Observed (100=total damage to plant; 0=no damage)” value in test [5] (Table B7, POST, 20 DAA, rate 25 g/ha) is 87; in test [5] (Table B10, POST, 15 DAA, rate 3.125 g/ha) it was 45; in test [5] (Table B10, POST, 15 DAA, rate 6.25 g/ha), 50; in test [5] (Table B10, POST, 15 DAA, rate 12.5 g/ha), 60; in test [5] (Table B11, POST, 20 DAA, rate 3.125 g/ha), 14; in test [5] (Table B12, POST, 13 DAA, rate 0.94 g/ha (Ic)) it was 3. For the same compound, the “Observed (100=total damage to plant; 0=no damage)” value in test [5] (Table B12, POST, 13 DAA, rate 1.88 g/ha) was 24; in test [5] (Table B12, POST, 13 DAA, rate 7.5 g/ha), 54; in test [5] (Table B13, POST, 15 DAA, rate 3.125 g/ha), 45; in test [5] (Table B13, POST, 15 DAA, rate 6.25 g/ha), 50; in test [5] (Table B13, POST, 15 DAA, rate 12.5 g/ha), 60.

Take `O=C(O)CNCP(=O)(O)O` [Compound B2c, glyphosate, reference compound]: the “Observed (100=total damage to plant; 0=no damage)” value in test [4] (rate 125 g/ha) is reported as 1.

As to `O=C(O)CC[n+]1ccc(-c2cccnn2)cn1.[Cl-]` [Compound B4c.27], the “Observed (100=total damage to plant; 0=no damage)” value in the test with Setaria faberi (SETFA) (rate 37.5 g/ha) is 37.

On to `CP(=O)(O)CC[C@H](N)C(=O)O` [Compound B1c, L-glufosinate/glufosinate-P, reference compound], for which the “Observed (100=total damage to plant; 0=no damage)” value in test [1] (POST, 14 DAA, rate 600 g/ha) is 60.

Regarding `CCOC(=O)C(Cl)Cc1cc(-n2nc(C)n(C(F)F)c2=O)c(F)cc1Cl` (stereo not drawn) [Compound B3b, carfentrazone-ethyl, reference compound], the “Observed (100=total damage to plant; 0=no damage)” value in test [3] (rate 3.75 g/ha) is given as 75.

Turning to `C#CCN1C(=O)C(F)(F)Oc2cc(F)c(-n3c(=O)n(C)c(=S)n(C)c3=O)cc21` [Compound B3k, trifludimoxazin, reference compound], the “Observed (100=total damage to plant; 0=no damage)” value in test [5] (Table B11, POST, 20 DAA, rate 4 g/ha) is on record as 38; in test [5] (Table B11, POST, 20 DAA, rate 30 g/ha) it was 31.

Turning to `CS(=O)(=O)NC(=O)c1cc(Oc2ccc(C(F)(F)F)cc2Cl)ccc1[N+](=O)[O-]` [Compound B3e, fomesafen, reference compound], the “Observed (100=total damage to plant; 0=no damage)” value in test [1] (Table B8, POST, 14 DAA, rate 7.5 g/ha) is 15; in test [1] (Table B8, POST, 14 DAA, rate 15 g/ha) it was 20; in test [1] (Table B8, POST, 14 DAA, rate 30 g/ha), 35.

As for `CCOC(=O)C1(C)CC(c2cc(-n3c(=O)cc(C(F)(F)F)n(C)c3=O)c(F)cc2Cl)=NO1` (stereo not drawn) [Compound B3l, 3-(2-chloro-4-fluoro-5-(3-methyl-2,6-dioxo-4-trifluoromethyl-3,6-dihydropyrimidin-1(2H)-yl)phenyl)-5-methyl-4,5-dihydroisoxazole-5-carboxylic acid ethyl ester, reference compound], the “Observed (100=total damage to plant; 0=no damage)” value is given as 33 in test [5] (Table B12, POST, 13 DAA, rate 0.94 g/ha (B3l)) and 73 in test [5] (Table B12, POST, 13 DAA, rate 3.75 g/ha).

Take `c1cc[n+]2c(c1)-c1cccc[n+]1CC2` [Compound B4b1, diquat dibromide, reference compound]: the “Observed (100=total damage to plant; 0=no damage)” value in test [5] (Table B13, POST, 15 DAA, rate 60 g/ha) is on record as 43.

With `C#CCN1C(=O)COc2cc(F)c(N3C(=O)C4=C(CCCC4)C3=O)cc21` [Compound B3d, flumioxazin, reference compound], the “Observed (100=total damage to plant; 0=no damage)” value turned out to be 8 in test [5] (Table B7, POST, 20 DAA, rate 4 g/ha) and 49 in test [5] (Table B7, POST, 20 DAA, rate 15 g/ha).

With `COC(=O)CCNC(=O)C(C)Sc1cc(-n2c(=O)cc(C(F)(F)F)n(C)c2=O)c(F)cc1Cl` (stereo not drawn) [Compound B3j, tiafenacil, reference compound], the “Observed (100=total damage to plant; 0=no damage)” value in test [5] (Table B10, POST, 15 DAA, rate 8 g/ha) is on record as 40; in test [5] (Table B10, POST, 15 DAA, rate 16 g/ha) it was 55.
